Measurements from publication PMC12990037, “Discovery of Two Structurally Distinct Classes of Inhibitors Targeting the Nuclease MUS81 and Enhancing Efficacy of Chemotherapy in Cancer Cells” (Journal of Medicinal Chemistry, 2026).
pIC50: −log10 of the molar value.

What was measured:
MUS81–EME1 = biological target: T1, MUS81–EME1 (Homo sapiens, UniProt Q96NY9); experiment: Gel-based in vitro nuclease assay: cleavage of 3′flap DNA by purified MUS81–EME1; type: biochemical
T1 construct: The MUS81–EME1 full-length expression plasmid was obtained from Stephen C; West; made in house; host or cells: Escherichia coli
T1 sequence (Q96NY9 1-551): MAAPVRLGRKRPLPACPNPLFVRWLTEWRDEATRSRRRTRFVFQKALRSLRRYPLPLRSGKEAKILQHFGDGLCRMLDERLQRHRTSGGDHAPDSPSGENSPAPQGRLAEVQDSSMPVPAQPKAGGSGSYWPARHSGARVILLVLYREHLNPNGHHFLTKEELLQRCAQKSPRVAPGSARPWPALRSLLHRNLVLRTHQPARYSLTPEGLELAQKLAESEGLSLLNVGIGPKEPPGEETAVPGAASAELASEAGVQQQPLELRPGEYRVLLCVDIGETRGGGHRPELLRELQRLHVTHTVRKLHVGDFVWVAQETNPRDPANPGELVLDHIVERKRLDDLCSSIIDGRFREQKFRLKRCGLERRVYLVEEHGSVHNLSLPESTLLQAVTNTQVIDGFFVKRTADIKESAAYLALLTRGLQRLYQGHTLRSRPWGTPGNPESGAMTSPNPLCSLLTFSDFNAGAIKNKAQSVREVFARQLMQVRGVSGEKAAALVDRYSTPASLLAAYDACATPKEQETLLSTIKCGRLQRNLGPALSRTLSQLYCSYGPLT
T1 sequence (Q96AY2 1-570 partner): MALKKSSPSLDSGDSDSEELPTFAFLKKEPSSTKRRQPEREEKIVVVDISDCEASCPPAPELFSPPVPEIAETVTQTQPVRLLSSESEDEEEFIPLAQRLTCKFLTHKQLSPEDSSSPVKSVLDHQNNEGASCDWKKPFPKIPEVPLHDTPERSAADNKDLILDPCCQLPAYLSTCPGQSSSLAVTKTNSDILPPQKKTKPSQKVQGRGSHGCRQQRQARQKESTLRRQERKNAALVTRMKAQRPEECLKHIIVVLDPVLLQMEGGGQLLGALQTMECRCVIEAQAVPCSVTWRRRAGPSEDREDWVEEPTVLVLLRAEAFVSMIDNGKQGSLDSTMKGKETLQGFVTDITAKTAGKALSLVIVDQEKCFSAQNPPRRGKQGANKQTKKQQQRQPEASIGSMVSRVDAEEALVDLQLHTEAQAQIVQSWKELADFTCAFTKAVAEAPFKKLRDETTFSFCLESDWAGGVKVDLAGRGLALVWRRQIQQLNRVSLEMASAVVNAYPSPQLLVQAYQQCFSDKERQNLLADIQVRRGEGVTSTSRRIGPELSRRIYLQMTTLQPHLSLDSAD
Experimental: To identify the small-molecule inhibitors of MUS81, we used two complementary screening approaches. The first involved a structure-based virtual screening, where over 140,000 small molecules were docked into the active site of MUS81 using AutoDock Vina software. […] The cleavage by purified MUS81-EME1 was monitored by gel electrophoresis, and the compound activity was quantified by measuring the reduction in cleavage product intensity.
Nuclease assays were performed in reaction buffer containing 50 mM Tris pH 7.5, 10 mM MgCl2, 1 mM DTT, 85 mM KCl, and 20% glycerol. Purified MUS81–EME1 (1 nM) was preincubated in 9 μL reaction with indicated concentrations of inhibitors for 15 min at room temperature, followed by the addition of 3 nM of a 3′flap DNA substrate (listed in Supplementary Table 9) and a further incubation for 15 min at 37 °C. The final concentration of DMSO in the reactions was 2%. The reactions were stopped by the addition of 0.1% SDS and 500 μg/mL of proteinase K, followed by incubation for 5 min at 37 °C. […] The fluorescent DNA was visualized using a FLA-9000 (Fujifilm). Bands corresponding to cleaved substrates were selected for quantification using the MultiGauge 3.2 software. Final data represent integrated density of these bands with background subtraction. Fitting of the data with sigmoid curves was performed in OriginPro (OriginLab).

[1] = biological target: T2, MUS81–EME1 binding to 3′ flap DNA substrate (Homo sapiens, UniProt Q96NY9); experiment: Electrophoretic mobility shift assay (EMSA); settings: MUS81–EME1 160 nM, no MgCl2
T2 construct: The MUS81–EME1 full-length expression plasmid was obtained from Stephen C; West; made in house; host or cells: Escherichia coli
T2 sequence (Q96NY9 1-551): T1 sequence (Q96NY9 1-551)
T2 sequence (Q96AY2 1-570 partner): T1 sequence (Q96AY2 1-570 partner)
Experimental: Purified MUS81–EME1 (160 nM) was incubated in a modified assay buffer without MgCl2 (50 mM Tris–HCl pH 7.4, 150 mM NaCl, and 0.05% Tween-20) with 15 nM of a 3′flap DNA substrate (listed in Supplementary Table 5) in the absence or presence of selected inhibitors at RT for 10 min, followed by an incubation at 25 °C for 10 min. The reaction was stopped on ice and products were resolved using native PAGE (7.5% acrylamide gel in 0.5% TBE) at 4 °C for 50 min (6.5 V/cm). Gel images were captured using a FLA-9000 (Fujifilm) and Typhoon (Amersham) scanners and quantified with Multi Gauge V3.2 software (Fujifilm).

[2] = biological target: T3, truncated MUS81 binding to immobilized DNA substrate (Homo sapiens, UniProt Q96NY9); experiment: Biolayer interferometry (BLI); settings: truncated MUS81 200 nM
T3 construct: made in house
T3 sequence (Q96NY9 246-551): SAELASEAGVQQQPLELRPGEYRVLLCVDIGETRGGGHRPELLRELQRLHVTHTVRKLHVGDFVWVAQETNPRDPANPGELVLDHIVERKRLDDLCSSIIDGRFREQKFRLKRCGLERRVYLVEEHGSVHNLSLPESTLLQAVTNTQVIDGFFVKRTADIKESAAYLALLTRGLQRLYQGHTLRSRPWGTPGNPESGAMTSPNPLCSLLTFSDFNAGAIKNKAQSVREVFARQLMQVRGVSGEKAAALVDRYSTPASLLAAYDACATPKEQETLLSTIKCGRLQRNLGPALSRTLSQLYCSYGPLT
T3 sequence (Q96AY2 178-570 partner limits assumed): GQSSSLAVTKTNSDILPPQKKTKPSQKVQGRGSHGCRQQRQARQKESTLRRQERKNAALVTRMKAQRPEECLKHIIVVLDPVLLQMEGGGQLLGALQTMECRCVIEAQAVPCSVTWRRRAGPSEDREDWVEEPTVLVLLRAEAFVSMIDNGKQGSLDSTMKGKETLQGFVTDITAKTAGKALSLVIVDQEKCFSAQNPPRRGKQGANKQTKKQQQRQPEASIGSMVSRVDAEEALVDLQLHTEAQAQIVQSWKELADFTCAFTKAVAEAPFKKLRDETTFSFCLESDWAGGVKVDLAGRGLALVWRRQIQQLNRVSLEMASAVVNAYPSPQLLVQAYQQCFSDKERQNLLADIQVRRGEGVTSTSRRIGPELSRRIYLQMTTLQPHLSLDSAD
Experimental: (A,B) Purified MUS81–EME1 (160 nM) was incubated with increasing concentrations of MU262, MU876, or their respective control analogues, followed by the addition of 3 nM fluorescently labeled 3′ flap DNA substrate. MgCl2 was omitted from the reaction buffer to prevent substrate cleavage. The reaction products were resolved on a native PAGE gel. The lower band represents a free DNA substrate, while the upper smear corresponds to the MUS81–DNA complex. n = 3. (C,D) A 3′ flap cleavage-resistant DNA substrate was immobilized on a streptavidin-coated (SAX) sensor and incubated with truncated MUS81 (200 nM) alone, or with MUS81 premixed with DMSO, MU876, MU262, or their respective control analogues. The real-time binding kinetics were measured as a change in optical thickness over time. Representative plots shown from two independent experiments. (E) Representative images of a DMSO-treated cell within 100 s after microirradiation. GFP-MUS81 U2OS cells were preincubated with DMSO or MU876 at 1 and 5 μM final concentration for 2 h. Localized DNA damage was induced using a 355 nm laser microirradiation at specific sites in individual nuclei. […] (F) The integrated intensity of a GFP-MUS81 signal accumulation ± SE from (E). n = 3.

With `CCc1nn2c(O)c(-c3nc4ccccc4[nH]3)nnc2c1-c1ccc(F)cc1` [Compound 18, 3-(1H-Benzo[d]imidazole-2-yl)-7-ethyl-8-(4-fluorophenyl)pyrazolo[5,1-c][1,2,4]triazin-4-ol] as the molecule, how does the pIC50 (MUS81–EME1; Table 1, in vitro) read?
The pIC50 was over 6.00.

And the pIC50 (MUS81–EME1; text and figures, MUS81–EME1 1 nM, 3 nM 3′ flap DNA)?
Its pIC50 is 6.06.

And the “effect on MUS81–EME1 binding to 3′ flap DNA (EMSA)” value [1]?
Its value is “neither MU262 nor its inactive analogue MU1066 disrupted the MUS81–DNA interaction”.

What about the “effect on MUS81–DNA binding (BLI)” value [2] of the same molecule?
Its value is “only negligible effect”.
